Data on nine molecules can be found in ChEMBL document CHEMBL1201862, “PubChem BioAssay data set” (2004).

The source made the active and inactive calls. Where only a bound is given, the exact number is not on record here.

The target in test [1] is T1, Beta Lactamase (Pseudomonas aeruginosa, UniProt Q932Y6). Briefly: VIM-2 metallo-beta-lactamase inhibitor potency, dose response, biochemical, epi-absorbance readout, selective inhibitors (AID 1919).
Test [2] has as its target FAD-linked sulfhydryl oxidase ALR (Homo sapiens, UniProt P55789). The test can be described thus: inhibitors of human ALR sulfhydryl oxidase, dose response, biochemical, H2O2 detection, luminescence, cherry-pick (AID 493248).
Test [3] deals with Beta-lactamase (Salmonella choleraesuis (strain SC-B67), UniProt Q5J463). Briefly: Epi-absorbance-based counterscreen for selective VIM-2 inhibitors: dose response biochemical high throughput screening assay to identify inhibitors of TEM-1 serine-beta-lactamase.
Beta-lactamase (Salmonella choleraesuis (strain SC-B67), UniProt Q5J463), sequence (Q5J463 whole entry): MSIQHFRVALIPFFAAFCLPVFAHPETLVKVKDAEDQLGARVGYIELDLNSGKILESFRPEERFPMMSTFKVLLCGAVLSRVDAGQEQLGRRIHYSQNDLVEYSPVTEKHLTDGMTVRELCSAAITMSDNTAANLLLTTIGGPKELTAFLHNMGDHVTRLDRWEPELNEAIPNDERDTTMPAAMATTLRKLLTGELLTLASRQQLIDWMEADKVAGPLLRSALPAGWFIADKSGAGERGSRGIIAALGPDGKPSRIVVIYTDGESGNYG
Test [4] concerns the target T1, Beta Lactamase. Briefly: VIM-2 inhibitor FRET-based artefact check, dose response, artefact control for selective VIM-2 inhibitor project, biochemical, FRET readout, CCF2 substrate (AID 1926).
In test [5] the target is T2, Beta-lactamase (Pseudomonas aeruginosa, UniProt Q79MP6). Briefly: […] counterscreen for selective VIM-2 inhibitors: dose response biochemical high throughput screening assay to identify inhibitors of IMP-1 metallo-beta-lactamase.
T2 sequence (Q79MP6 whole entry): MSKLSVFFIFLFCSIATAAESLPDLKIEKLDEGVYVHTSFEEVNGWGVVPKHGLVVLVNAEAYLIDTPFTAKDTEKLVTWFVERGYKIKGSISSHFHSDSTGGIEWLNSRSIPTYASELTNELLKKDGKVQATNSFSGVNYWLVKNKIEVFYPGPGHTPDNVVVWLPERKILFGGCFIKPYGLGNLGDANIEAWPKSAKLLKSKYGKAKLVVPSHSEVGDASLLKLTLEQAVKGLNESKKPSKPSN
Test [6] addresses T2, Beta-lactamase. Briefly: IMP-1 metallo-beta-lactamase inhibitors, dose response, selectivity assay for VIM-2 inhibitor project, biochemical, epi-absorbance (AID 1920).
Test [7] is described as follows: luciferase signal loss, tTA control fusion, HeLa F-luc tTA cells, dry powder, counter-screen for HIV Env fusion inhibitor project, dose response (AID 687021). It counts as functional, cell-based. On the technique in general: The purpose of a counterscreen is to sort out artefacts and off-target activity.
Test [8] in a line: cytotoxicity in HeLa cells, dose response, cytotoxicity control, cell-based, 24 h, dry powder, set 2 (AID 651774). In kind it is functional.
Test [9] can be described thus: NIH/3T3 fibroblast cytotoxicity, dose response, cytotoxicity control for T. cruzi growth inhibitor project, cell-based, cherry-pick samples, set 2 (AID 651817). To be noted: NIH3T3. In kind it is functional.
Test [10] in a line: intracellular Trypanosoma cruzi inhibitors in host cells – cell-based, plate reader, cherry-pick samples, set 3, dose response (AID 651818).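 Note: compounds incubated with infected cells for about four days.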 It counts as functional.
Test [11] is described as follows: P. falciparum ATP4 D1247Y mutant growth inhibitors, dose response, NITD609-resistant line, SYBR Green, dry powder (AID 1159571).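 Note: parasites synchronized at ring stage by sorbitol before testing.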 It counts as functional, cell-based.
Test [12] in a line: lymphoblastoid cell cytotoxicity, dose response, cytotoxicity control, plate reader, dry powder, set 2 (AID 624367). It counts as functional.
Test [13] in a line: HepG2 cell cytotoxicity, dose response, cytotoxicity control, plate reader, dry powder samples (AID 1159569).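 Note: inhibitor potency with signal falling toward the positive control level.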 It counts as functional, cell-based.
Test [14] can be described thus: P. falciparum 3D7-ScDHODH growth inhibitors, dose response, SYBR Green, dry powder samples (AID 1159570).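 Note: parasite growth measured after 72 hours of compound exposure.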 In kind it is functional, cell-based.
Test [15] in a line: P. falciparum Dd2 growth inhibitors, dose response, SYBR Green, cherry-picked samples (AID 1159567). In kind it is functional, cell-based.
Test [16] in a line: P. falciparum Dd2 growth inhibitors, dose response, SYBR Green, dry powder samples (AID 1159566).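 Note: potency for growth inhibition with lower SYBR green DNA signal.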 In kind it is functional, cell-based.
A short description of test [17]: HepG2 cell cytotoxicity, dose response, cytotoxicity control, cherry-picked samples (AID 1159577). In kind it is functional, cell-based.
Test [18] in a line: EDANS-DABCYL fluorescence interference, concentration series, dose response, artefact control for kallikrein-7 zymogen activator project, biochemical, fluorescence intensity, triplicate (AID 720493).
The target of the next test is Kallikrein-7 (Homo sapiens, UniProt P49862). Briefly: Fluorescence Intensity-based biochemical primary high throughput dose response assay to identify activators of kallikrein-7 (K7) zymogen.
Kallikrein-7, sequence (P49862 whole entry): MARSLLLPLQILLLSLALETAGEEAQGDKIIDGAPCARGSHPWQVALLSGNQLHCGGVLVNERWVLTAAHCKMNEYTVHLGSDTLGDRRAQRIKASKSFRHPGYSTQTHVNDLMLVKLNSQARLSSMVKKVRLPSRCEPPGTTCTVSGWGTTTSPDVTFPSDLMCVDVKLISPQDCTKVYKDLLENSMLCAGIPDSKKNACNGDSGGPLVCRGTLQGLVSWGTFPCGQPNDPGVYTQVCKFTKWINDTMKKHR
Test [19] concerns the target T3, Beta-2 adrenergic receptor (Homo sapiens, UniProt P07550). The test can be described thus: beta2AR agonists driving receptor internalization, dose response, cell-based, FAP fluorogen, flow cytometry, cherry pick 1 (AID 588763). In kind it is functional. Background: In flow cytometry, cells or beads pass a laser one at a time.
Test [20] deals with T3, Beta-2 adrenergic receptor. The test can be described thus: Dose response for HTS for Beta-2AR agonists via FAP method from Powderset3. It counts as functional.
Another test has as its target Cytochrome P450 2C19 (Homo sapiens, UniProt P33261). The test can be described thus: Cytochrome panel assay with activity outcomes. Panel member name: p450-cyp2c19 Compounds with AC50 equal or less than 10 uM are considered active. It counts as functional. The note with it: read-out: AC50.
A further test addresses Cytochrome P450 3A4 (Homo sapiens, UniProt P08684).
Test [21] in a line: Cryptococcus neoformans growth inhibition, dose response, Alamar Blue, cherry-picks (AID 686998). In kind it is functional, organism-based.
A short description of test [22]: cytotoxicity in HEK-293T cells, dose response, cytotoxicity control for TCR NF-kB inhibitor project, luminescence, T-cell screen hits (AID 489026).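 Note: cells exposed to compound about 14 hours before the viability readout.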 In kind it is functional, cell-based.
The subject of another test is Vero. Briefly: Vero cell toxicity, dose response, cytotoxicity control, plate reader, cherry-pick samples (AID 687020). To be noted: Chlorocebus sabaeus. In kind it is functional, cell-based.
In a further test the test system is A549. The test can be described thus: A549 cell toxicity, dose response, cytotoxicity control, plate reader, cherry-pick samples (AID 687028). In kind it is functional, cell-based. To be noted: Homo sapiens.

T3 sequence (P07550 whole entry): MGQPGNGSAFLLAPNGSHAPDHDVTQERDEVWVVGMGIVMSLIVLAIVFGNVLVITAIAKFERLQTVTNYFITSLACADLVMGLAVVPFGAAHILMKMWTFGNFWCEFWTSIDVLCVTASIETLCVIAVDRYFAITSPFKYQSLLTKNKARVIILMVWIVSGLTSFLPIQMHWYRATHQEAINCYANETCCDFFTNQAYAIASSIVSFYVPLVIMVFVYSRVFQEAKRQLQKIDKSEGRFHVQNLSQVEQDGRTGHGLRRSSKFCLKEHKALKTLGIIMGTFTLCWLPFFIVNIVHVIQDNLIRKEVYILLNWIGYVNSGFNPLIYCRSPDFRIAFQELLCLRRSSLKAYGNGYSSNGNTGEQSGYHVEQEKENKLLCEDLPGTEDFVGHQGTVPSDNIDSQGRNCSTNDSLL
T1 sequence (Q932Y6 whole entry): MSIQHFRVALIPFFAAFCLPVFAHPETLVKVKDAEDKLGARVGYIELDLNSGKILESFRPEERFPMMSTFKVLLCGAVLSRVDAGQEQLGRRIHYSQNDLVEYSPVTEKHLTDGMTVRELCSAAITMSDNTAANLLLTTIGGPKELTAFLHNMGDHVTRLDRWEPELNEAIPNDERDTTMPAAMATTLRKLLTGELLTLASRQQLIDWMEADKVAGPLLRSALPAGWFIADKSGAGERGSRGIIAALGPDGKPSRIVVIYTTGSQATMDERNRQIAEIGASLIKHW
FAD-linked sulfhydryl oxidase ALR, sequence (P55789 whole entry): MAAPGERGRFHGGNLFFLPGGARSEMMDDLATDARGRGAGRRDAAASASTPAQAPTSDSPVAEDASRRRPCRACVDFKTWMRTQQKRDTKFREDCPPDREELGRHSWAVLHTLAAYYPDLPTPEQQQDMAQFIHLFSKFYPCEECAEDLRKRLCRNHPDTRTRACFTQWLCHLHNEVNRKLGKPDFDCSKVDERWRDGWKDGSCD
Cytochrome P450 3A4, sequence (P08684 whole entry): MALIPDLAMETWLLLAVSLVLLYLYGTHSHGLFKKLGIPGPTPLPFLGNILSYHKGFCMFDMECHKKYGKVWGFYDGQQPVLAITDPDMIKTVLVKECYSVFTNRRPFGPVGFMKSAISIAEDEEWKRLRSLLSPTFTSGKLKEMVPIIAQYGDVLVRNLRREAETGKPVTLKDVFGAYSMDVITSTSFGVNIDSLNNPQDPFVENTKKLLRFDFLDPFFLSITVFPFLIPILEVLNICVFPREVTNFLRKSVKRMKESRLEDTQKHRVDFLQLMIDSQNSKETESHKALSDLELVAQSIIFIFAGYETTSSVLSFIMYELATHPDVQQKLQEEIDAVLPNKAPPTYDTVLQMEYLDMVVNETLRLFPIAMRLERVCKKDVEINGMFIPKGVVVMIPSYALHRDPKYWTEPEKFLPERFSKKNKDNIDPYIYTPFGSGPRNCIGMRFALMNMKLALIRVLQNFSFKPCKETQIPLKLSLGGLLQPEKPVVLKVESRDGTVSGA
Cytochrome P450 2C19, sequence (P33261 whole entry): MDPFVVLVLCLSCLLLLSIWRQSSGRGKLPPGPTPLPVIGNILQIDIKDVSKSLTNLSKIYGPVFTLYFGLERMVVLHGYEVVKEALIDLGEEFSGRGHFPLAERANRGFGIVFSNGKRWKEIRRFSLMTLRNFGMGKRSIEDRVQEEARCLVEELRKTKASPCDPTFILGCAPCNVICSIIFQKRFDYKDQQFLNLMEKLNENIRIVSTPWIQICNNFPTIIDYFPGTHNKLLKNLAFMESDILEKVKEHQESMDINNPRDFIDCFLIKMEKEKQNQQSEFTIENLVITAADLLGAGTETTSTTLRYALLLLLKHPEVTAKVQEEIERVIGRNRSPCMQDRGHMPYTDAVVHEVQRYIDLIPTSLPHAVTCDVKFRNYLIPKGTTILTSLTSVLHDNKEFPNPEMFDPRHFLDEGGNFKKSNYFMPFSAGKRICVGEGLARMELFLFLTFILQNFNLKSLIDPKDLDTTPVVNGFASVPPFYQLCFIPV

The term IC50 denotes the concentration that inhibits the measured activity by half. Usually AC50 stands for the concentration at which the activity in the assay is half-maximal. On to `O=[N+]([O-])c1ccccc1/C=C/C=N/n1c(S)nnc1-c1ccccc1F`, for which the IC50 at Beta Lactamase [1] was > 59.6 µM (inactive); on Beta-lactamase [3], > 59.6 µM (inactive); at Beta Lactamase [4], > 6.63 µM (active); on Beta-lactamase [5], > 59.6 µM (inactive); at Beta-lactamase [6], > 59.6 µM (inactive). Further, the half-maximal activity concentration (AC50) in [2] was 1.89 µM (active).

As for `CC1(C)CC(NC(=O)C(=O)Nc2ccc(Cl)cc2)CC(C)(C)N1`, the AC50 in [7] was > 70 µM (inactive).

With `CNC(=O)Cc1ccc(-c2ccccc2)cc1`, the AC50 in test [8] was > 70 µM (inactive).

For `C[C@@H]1CN([C@H](C)CO)C(=O)c2cccc(NC(=O)Nc3ccc(C(F)(F)F)cc3)c2O[C@H]1CN(C)Cc1ccc(Cl)c(Cl)c1`, the half-maximal activity concentration (AC50) in test [9] is 15.7 µM (active); in test [10], 1.28 µM (active).

On to `N#C[C@H]1[C@H](c2ccc(C#Cc3ccccc3F)cc2)[C@H](CO)N1C(=O)c1cccnc1`, for which the AC50 in [11] was 1.54 µM (active); in test [13] it was > 100 µM (inactive); in test [14], 1.83 µM (active); in test [15], 1.58 µM (active); in test [16], 1.59 µM (active); in test [17] it was > 39 µM (inactive). This molecule also registered an AbsAC35 in test [12] of 50.14 µM.

Broadly, the EC50 is the concentration at which the effect is half-maximal. As to `CNc1cc(C)c(C#N)c2nc3ccccc3n12`, the EC50 in test [18] was > 2.58 µM (active); on Kallikrein-7, 3.77 µM (active).

With `Cc1ccc(Cn2ccc(NC(=O)c3cc4nc(-c5ccco5)cc(C(F)(F)F)n4n3)n2)cc1`, the EC50 was 0.22 µM (active) in test [19] and 0.00643 µM (active) in test [20]. Also, the concentration at half-maximal activity (AC50) was 14.1 µM (inconclusive) at Cytochrome P450 2C19 and 2.82 µM (inconclusive) on Cytochrome P450 3A4.

With `CCC(=O)N1CCCC1(C)C(=O)Nc1ccc(C)c(C)c1` (configuration not stated), in [21], the half-maximal activity concentration (AC50) is 93.7 µM (active).

With `COc1ccc(OC)c(-c2nnc3n2N=C(c2ccc(OC)c(OC)c2)CS3)c1`, the IC50 in [22] was > 80 µM (inactive). The half-maximal activity concentration (AC50) with Vero was 23.2 µM (active); in the test with A549, 4.83 µM (active).
